# Experimental data as given in patent US20250213542A1, “DEVICES AND METHODS FOR DELIVERING SYNERGISTIC ACTIVE AGENTS TO TARGET SITES” (IRRIMAX Corporation, priority 2023, published 2025).
# Counter-ions that a name gives are not always drawn. Like-named read-outs stand apart in the source and are kept apart here.
# Legend:
# Type in all cases: cell-based
# E. coli (ATCC BAA 1427) [1] = test: Minimum inhibitory concentration determination, serial 2-fold dilution; conditions: Escherichia coli
# Description: (§1) The minimal inhibitory concentration (MIC, the minimum inhibitory concentration required for 90% growth reduction) of octenidine was determined against S. aureus (ATCC 6538), P. aeruginosa (ATCC 15442), and E. coli (ATCC BAA 1427) by serial 2-fold dilution experiments. A solution of chlorhexidine (0.025% w/w) was used as a positive control and comparator.
# [2] = test system: P. aeruginosa (ATCC 15442); test: as above; conditions: Pseudomonas aeruginosa, ATCC15442, P. aeruginosa (ATCC 15442)
# Description: as §1
# S. aureus (ATCC 6538) [3] = test: as above; conditions: Staphylococcus aureus, ATCC6538, S. aureus (ATCC 6538)
# Description: as §1
# E. coli (ATCC BAA 1427) [4] = test: Minimal bactericidal concentration determination, serial 2-fold dilution; conditions: E. coli (ATCC BAA 1427); for Number of Colonies: average of triplicate
# Description: (§2) The minimal bactericidal concentration (MBC) of octenidine dihydrochloride was determined against S. aureus (ATCC 6538), P. aeruginosa (ATCC 15442), and E. coli (ATCC BAA 1427) by serial 2-fold dilution experiments. A solution of chlorhexidine (0.025% w/w) was used as a positive control and comparator.
# [5] = test system: P. aeruginosa (ATCC 15442); test: as above; conditions: for Number of Colonies: average of triplicate
# Description: as §2
# S. aureus (ATCC 6538) [6] = test: as above; conditions: for Number of Colonies: average of triplicate
# Description: as §2
# P. aeruginosa = test: Chequerboard assay, FIC and synergy analysis; conditions: Pseudomonas aeruginosa, P. aeruginosa, chequerboard
# Description: (§3) Chlorhexidine gluconate (CHG) and octenidine dihydrochloride (OCT) were analyzed by chequerboard assay with each test organism to determine potential additive, synergistic, and antagonistic activity. The test organisms S. aureus, P. aeruginosa, and E. coli were tested at ranges of chlorhexidine gluconate (0.122-15.625 μg/ml, 1.25-160 μg/ml, and 0.125-16 μg/ml, respectively) and octenidine dihydrochloride (0.029-3.75 μg/mL, 0.029-3.75 μg/mL, and 0.029-3.75 μg/mL, respectively). FIC was calculated by the following Equation 2: […]
# E. coli = test: Chequerboard assay, FIC and synergy analysis; conditions: Escherichia coli
# Description: as §3
# S. aureus = test: Chequerboard assay, FIC and synergy analysis; conditions: Staphylococcus aureus
# Description: as §3
# [7] = 0.46875 μg/mL, read-out: Average Growth Inhibition (%)
# [8] = 0.9375 μg/mL, read-out: Average Growth Inhibition (%)
# [9] = 1.875 μg/mL, read-out: Average Growth Inhibition (%)
# [10] = 3.75 μg/mL, read-out: Average Growth Inhibition (%)
# [11] = 7.5 μg/mL, read-out: Average Growth Inhibition (%)
# [12] = 15 μg/mL, read-out: Average Growth Inhibition (%)
# [13] = 30 μg/mL, read-out: Average Growth Inhibition (%)
# [14] = 60 μg/mL, read-out: Average Growth Inhibition (%)
# [15] = read-out: MIC (inhibited greater than 90% growth)
# [16] = in presence of CHG, read-out: MIC of OCT in Presence of CHG
smiles,measurement,setting,value
"CCCCCCCCN=c1ccn(CCCCCCCCCCn2ccc(=NCCCCCCCC)cc2)cc1 [Octenidine dihydrochloride, 1-Octanamine, N,N′-(1,10-decanediyldi-1(4H)-pyridinyl-4-ylidene)bis-]",inhibition at 0.46875 µg/mL,"E. coli (ATCC BAA 1427) [1]; BAA1427, 0.46875 μg/mL, read-out: Average Growth Inhibition (%)",6%
same,inhibition at 0.9375 µg/mL,"E. coli (ATCC BAA 1427) [1]; BAA1427, 0.9375 μg/mL, read-out: Average Growth Inhibition (%)",12%
same,inhibition at 1.875 µg/mL,"E. coli (ATCC BAA 1427) [1]; BAA1427, 1.875 μg/mL, read-out: Average Growth Inhibition (%)",100%
same,inhibition at 3.75 µg/mL,"E. coli (ATCC BAA 1427) [1]; BAA1427, 3.75 μg/mL, read-out: Average Growth Inhibition (%)",100%
same,inhibition at 7.5 µg/mL,"E. coli (ATCC BAA 1427) [1]; BAA1427, 7.5 μg/mL, read-out: Average Growth Inhibition (%)",100%
same,inhibition at 15 µg/mL,"E. coli (ATCC BAA 1427) [1]; BAA1427, 15 μg/mL, read-out: Average Growth Inhibition (%)",99%
same,inhibition at 30 µg/mL,"E. coli (ATCC BAA 1427) [1]; BAA1427, 30 μg/mL, read-out: Average Growth Inhibition (%)",97%
same,inhibition at 60 µg/mL,"E. coli (ATCC BAA 1427) [1]; BAA1427, 60 μg/mL, read-out: Average Growth Inhibition (%)",91%
same,MIC,"E. coli (ATCC BAA 1427) [1]; BAA1427, read-out: MIC (inhibited greater than 90% growth)",1.88 µg/mL
same,inhibition at 0.46875 µg/mL,[2]; [7],2%
same,inhibition at 0.9375 µg/mL,[2]; [8],4%
same,inhibition at 1.875 µg/mL,[2]; [9],100%
same,inhibition at 3.75 µg/mL,[2]; [10],100%
same,inhibition at 7.5 µg/mL,[2]; [11],100%
same,inhibition at 15 µg/mL,[2]; [12],99%
same,inhibition at 30 µg/mL,[2]; [13],97%
same,inhibition at 60 µg/mL,[2]; [14],91%
same,MIC,[2]; [15],1.88 µg/mL
same,inhibition at 0.46875 µg/mL,S. aureus (ATCC 6538) [3]; [7],50%
same,inhibition at 0.9375 µg/mL,S. aureus (ATCC 6538) [3]; [8],101%
same,inhibition at 1.875 µg/mL,S. aureus (ATCC 6538) [3]; [9],101%
same,inhibition at 3.75 µg/mL,S. aureus (ATCC 6538) [3]; [10],101%
same,inhibition at 7.5 µg/mL,S. aureus (ATCC 6538) [3]; [11],98%
same,inhibition at 15 µg/mL,S. aureus (ATCC 6538) [3]; [12],97%
same,inhibition at 30 µg/mL,S. aureus (ATCC 6538) [3]; [13],92%
same,inhibition at 60 µg/mL,S. aureus (ATCC 6538) [3]; [14],73%
same,MIC,S. aureus (ATCC 6538) [3]; [15],0.938 µg/mL
same,CFU/mL,E. coli (ATCC BAA 1427) [4]; 0.46875 μg/mL,"Lawn (‘Lawn’indicates too many colonies to accurately count (e.g., greater than 250 colonies on an agar plate))"
same,Number of Colonies,E. coli (ATCC BAA 1427) [4]; 0.46875 μg/mL,"Lawn (‘Lawn’indicates too many colonies to accurately count (e.g., greater than 250 colonies on an agar plate))"
same,CFU/mL,E. coli (ATCC BAA 1427) [4]; 0.9375 μg/mL,"Lawn (‘Lawn’indicates too many colonies to accurately count (e.g., greater than 250 colonies on an agar plate))"
same,Number of Colonies,E. coli (ATCC BAA 1427) [4]; 0.9375 μg/mL,"Lawn (‘Lawn’indicates too many colonies to accurately count (e.g., greater than 250 colonies on an agar plate))"
same,CFU/mL,E. coli (ATCC BAA 1427) [4]; 1.875 μg/mL,0 CFU/mL
same,Number of Colonies,E. coli (ATCC BAA 1427) [4]; 1.875 μg/mL,0
same,CFU/mL,E. coli (ATCC BAA 1427) [4]; 3.75 μg/mL,0 CFU/mL
same,Number of Colonies,E. coli (ATCC BAA 1427) [4]; 3.75 μg/mL,0
same,CFU/mL,E. coli (ATCC BAA 1427) [4]; 7.5 μg/mL,0 CFU/mL
same,Number of Colonies,E. coli (ATCC BAA 1427) [4]; 7.5 μg/mL,0
same,CFU/mL,E. coli (ATCC BAA 1427) [4]; 15 μg/mL,0 CFU/mL
same,Number of Colonies,E. coli (ATCC BAA 1427) [4]; 15 μg/mL,0
same,CFU/mL,E. coli (ATCC BAA 1427) [4]; 30 μg/mL,0 CFU/mL
same,Number of Colonies,E. coli (ATCC BAA 1427) [4]; 30 μg/mL,0
same,CFU/mL,E. coli (ATCC BAA 1427) [4]; 60 μg/mL,0 CFU/mL
same,Number of Colonies,E. coli (ATCC BAA 1427) [4]; 60 μg/mL,0
same,MBC,"E. coli (ATCC BAA 1427) [4]; Escherichia coli, BAA1427, read-out: MBC (concentration having less than 500 CFU/mL)",1.88 µg/mL
same,CFU/mL,[5]; 0.46875 μg/mL,"Lawn (‘Lawn’indicates too many colonies to accurately count (e.g., greater than 250 colonies on an agar plate))"
same,Number of Colonies,[5]; 0.46875 μg/mL,"Lawn (‘Lawn’indicates too many colonies to accurately count (e.g., greater than 250 colonies on an agar plate))"
same,CFU/mL,[5]; 0.9375 μg/mL,"Lawn (‘Lawn’indicates too many colonies to accurately count (e.g., greater than 250 colonies on an agar plate))"
same,Number of Colonies,[5]; 0.9375 μg/mL,"Lawn (‘Lawn’indicates too many colonies to accurately count (e.g., greater than 250 colonies on an agar plate))"
same,CFU/mL,[5]; 1.875 μg/mL,966.67 CFU/mL
same,Number of Colonies,[5]; 1.875 μg/mL,9.667
same,CFU/mL,[5]; 3.75 μg/mL,0 CFU/mL
same,Number of Colonies,[5]; 3.75 μg/mL,0
same,CFU/mL,[5]; 7.5 μg/mL,0 CFU/mL
same,Number of Colonies,[5]; 7.5 μg/mL,0
same,CFU/mL,[5]; 15 μg/mL,0 CFU/mL
same,Number of Colonies,[5]; 15 μg/mL,0
same,CFU/mL,[5]; 30 μg/mL,0 CFU/mL
same,Number of Colonies,[5]; 30 μg/mL,0
same,CFU/mL,[5]; 60 μg/mL,0 CFU/mL
same,Number of Colonies,[5]; 60 μg/mL,0
same,MBC,"[5]; Pseudomonas aeruginosa, ATCC15442, read-out: MBC (concentration having less than 500 CFU/mL)",3.75 µg/mL
same,CFU/mL,S. aureus (ATCC 6538) [6]; 0.46875 μg/mL,"Lawn (‘Lawn’indicates too many colonies to accurately count (e.g., greater than 250 colonies on an agar plate))"
same,Number of Colonies,S. aureus (ATCC 6538) [6]; 0.46875 μg/mL,"Lawn (‘Lawn’indicates too many colonies to accurately count (e.g., greater than 250 colonies on an agar plate))"
same,CFU/mL,S. aureus (ATCC 6538) [6]; 0.9375 μg/mL,0 CFU/mL
same,Number of Colonies,S. aureus (ATCC 6538) [6]; 0.9375 μg/mL,0
same,CFU/mL,S. aureus (ATCC 6538) [6]; 1.875 μg/mL,0 CFU/mL
same,Number of Colonies,S. aureus (ATCC 6538) [6]; 1.875 μg/mL,0
same,CFU/mL,S. aureus (ATCC 6538) [6]; 3.75 μg/mL,566.67 CFU/mL
same,Number of Colonies,S. aureus (ATCC 6538) [6]; 3.75 μg/mL,5.6667
same,CFU/mL,S. aureus (ATCC 6538) [6]; 7.5 μg/mL,0 CFU/mL
same,Number of Colonies,S. aureus (ATCC 6538) [6]; 7.5 μg/mL,0
same,CFU/mL,S. aureus (ATCC 6538) [6]; 15 μg/mL,0 CFU/mL
same,Number of Colonies,S. aureus (ATCC 6538) [6]; 15 μg/mL,0
same,CFU/mL,S. aureus (ATCC 6538) [6]; 30 μg/mL,0 CFU/mL
same,Number of Colonies,S. aureus (ATCC 6538) [6]; 30 μg/mL,0
same,CFU/mL,S. aureus (ATCC 6538) [6]; 60 μg/mL,0 CFU/mL
same,Number of Colonies,S. aureus (ATCC 6538) [6]; 60 μg/mL,0
same,MBC,"S. aureus (ATCC 6538) [6]; Staphylococcus aureus, ATCC6538, read-out: MBC (concentration having less than 500 CFU/mL)",0.938 µg/mL
same,MIC,P. aeruginosa; [16],0.938 µg/mL
same,MIC,P. aeruginosa; read-out: MIC of OCT Alone,1.88 µg/mL
same,MIC,E. coli; [16],0.029 µg/mL
same,MIC,E. coli; read-out: MIC of OCT Alone,1.88 µg/mL
same,MIC,S. aureus; [16],0.234 µg/mL
same,MIC,S. aureus; read-out: MIC of OCT Alone,0.938 µg/mL
